Laboratory results reported in PubChem BioAssay (NCI).
Where “and” joins values, the source holds several entries; their conditions need not be identical. Equal entries are not always repeated.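 Step 1: Grow cells in 96-well plates. Step 2: Expose to compound for 48 hours at 5 concentrations. Step 3: Interpolate endpoints linearly; if unreached, use highest concentration. The concentration for 50% growth inhibition is given as GI50. Definition used: TGI = concentration required for complete inhibition of growth.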

Experiments:
Assay in all cases: NCI anticancer screen, dose series, 48 h
[1] = test system: HCT-15 colon
[2] = test system: UO-31 renal
[3] = test system: HCT-116 colon
[4] = test system: HOP-92 NSCLC
[5] = test system: SN12C renal
[6] = test system: RXF 393 renal
[7] = test system: IGROV1 ovarian
[8] = test system: SR leukemia
[9] = test system: OVCAR-4 ovarian
[10] = test system: HL-60(TB) leukemia

Compound	GI50 [1]	TGI [1]	GI50 [2]	TGI [2]	GI50 [3]	TGI [3]	GI50 [4]	TGI [4]	GI50 [5]	TGI [5]	GI50 [6]	TGI [6]	GI50 [7]	TGI [7]	GI50 [8]	TGI [8]	GI50 [9]	TGI [9]	GI50 [10]	TGI [10]
O=S(=O)(Nc1ccc(F)cc1F)c1ccc(-c2cnc(C3CC3)o2)cc1	0.37 µM	46.7 µM	1.07 µM	34.2 µM	0.421 µM	> 64 µM	0.25 µM	10.6 µM	0.878 µM	39.8 µM	0.595 µM	7.05 µM	0.535 µM	67.2 µM	0.406 µM	> 100 µM	3.13 µM	> 100 µM	0.397 µM	6.39 µM
CC[C@H]1CN2CCc3cc(OC)c(OC)cc3[C@@H]2C[C@@H]1C[C@H]1NCCc2c1[nH]c1ccc(O)cc21	0.688 µM	5.38 µM and 4.1 µM	0.251 µM and 1.2 µM	0.772 µM and 4.5 µM and 1.9 µM	0.0196 µM and 0.0409 µM	0.0475 µM and 0.207 µM and 0.195 µM	0.0183 µM and 0.0337 µM		0.0228 µM and 0.0349 µM	0.0741 µM and 0.136 µM and 0.19 µM	0.0194 µM and 0.0351 µM	0.0629 µM and 0.252 µM and 0.183 µM	0.0267 µM and 0.0328 µM	0.0806 µM and 0.159 µM and 0.196 µM	0.0152 µM and 0.0333 µM		0.0138 µM	0.0443 µM and 0.0436 µM and < 0.0124 µM	0.0296 µM and 0.025 µM	0.0955 µM and 0.0514 µM and 0.0353 µM
COc1ccc(-c2ccc(-c3ccc(C(=N)N)s3)s2)cc1	0.195 µM	0.415 µM	0.181 µM	0.355 µM	0.179 µM	0.342 µM	1.16 µM	2.71 µM	0.205 µM	0.465 µM	1.26 µM	3.05 µM	0.244 µM	0.509 µM	0.208 µM	0.566 µM	0.187 µM	0.399 µM	0.208 µM	0.423 µM
NC(=O)OCCn1cc(-c2nc(-c3c[nH]c4ncccc34)cs2)c2ccccc21	1.92 µM	> 100 µM	0.621 µM	4.65 µM	1.72 µM	5.02 µM	0.668 µM	3.71 µM	2.46 µM	32.4 µM	1.78 µM	5.56 µM	0.138 µM	1.95 µM	1.08 µM	7.05 µM	1.78 µM	11.9 µM	2.12 µM	5.45 µM
CCN(Cc1ccccc1C)c1ccc(CO)c(Cl)c1	8.57 µM	29.3 µM	12.9 µM	32.9 µM	0.445 µM	11.6 µM	1.83 µM	9.14 µM	12.5 µM	25.9 µM	6.3 µM	23.8 µM		0.747 µM	9.29 µM	32.6 µM	1.26 µM	11.8 µM	11.3 µM	34.4 µM
CC(C)C(=O)Nc1nc2c(ncn2C2OC(CO)C(O)C2O)c(=O)[nH]1 (stereo not drawn)		> 100 µM		> 100 µM		> 100 µM		> 100 µM		> 100 µM		> 100 µM		> 100 µM		> 100 µM		> 100 µM		> 100 µM
C1=C\COCc2cc(ccc2OCCN2CCCC2)Nc2nccc(n2)-c2cccc(c2)COC/1	1.26 µM	7.51 µM	0.722 µM	4.01 µM	1.03 µM	4.07 µM	1.34 µM	4.86 µM	1.19 µM	4.92 µM	1.05 µM	2.9 µM	0.871 µM	3.85 µM	0.306 µM	1.62 µM	3.79 µM	6.56 µM	1.28 µM	4.79 µM
O[C@H](c1cc(C(F)(F)F)nc2c(C(F)(F)F)cccc12)[C@@H]1CCCCN1	11.9 µM	27 µM	1.88 µM	9.48 µM	2.3 µM	5.44 µM	1.79 µM	8.43 µM	4.19 µM	14 µM	3.82 µM	13.5 µM	1.17 µM	4.14 µM	2.32 µM	9.5 µM	4.45 µM	15 µM	2.08 µM	4.51 µM
O=C1NC(=NCCc2cccc(Cl)c2)S/C1=C\c1ccc2ncccc2c1	1.08 µM	> 25 µM	> 25 µM	> 25 µM			> 25 µM	> 25 µM	> 25 µM	> 25 µM	> 25 µM	> 25 µM	> 25 µM	> 25 µM	0.403 µM	> 25 µM	> 25 µM	> 25 µM	> 25 µM	> 25 µM
CCn1sc2ccccc2c1=O		27.5 µM				30.7 µM		22.5 µM		22.7 µM		11.7 µM		19.6 µM		> 100 µM		89.8 µM		13 µM
Cc1[nH]c(/C=C2\C(=O)Nc3ccccc32)c(C)c1CCC(=O)O		> 100 µM	11.6 µM	43.6 µM and > 100 µM	25.9 µM	> 100 µM	12.7 µM	43.2 µM and 62.8 µM	24.7 µM	> 100 µM	19.2 µM	63.3 µM and 90.5 µM		> 100 µM	19.7 µM	48.7 µM and 57.9 µM		> 100 µM	20.2 µM	45.8 µM
COC1(OC)CC2C(=O)N(Cc3ccccc3)C1C=C2S(=O)(=O)c1ccccc1 (stereo not drawn)				65.1 µM		26.7 µM		54.1 µM		30.1 µM		29 µM		> 100 µM		46.3 µM		53.5 µM		36.7 µM
O=C(c1ccc(/C=C/c2n[nH]c3ccccc23)cc1)N1CCNCC1	1.5 µM and 3.47 µM		2.94 µM and 2.95 µM	> 10 µM and 15.1 µM	1.5 µM and 2.02 µM	2.88 µM and 20.9 µM	2.71 µM and 1.89 µM	> 10 µM and 7.63 µM	> 10 µM and 2.43 µM	> 10 µM and 19.4 µM	2.66 µM and 1.99 µM	> 10 µM and 6.94 µM	5.32 µM and 3.14 µM	> 10 µM and 19.1 µM	1.85 µM and 0.407 µM	4.23 µM and 10.3 µM	> 10 µM and 3.82 µM	> 10 µM and 26 µM	1.94 µM and 4.15 µM	4.45 µM and 22.3 µM
O=C(CSC1CCc2ccccc21)N/N=C/c1ccccc1O (stereo not drawn)	2.27 µM	> 100 µM	0.985 µM	17 µM	5.01 µM	65.6 µM	2.61 µM	37.5 µM	4.67 µM	67.4 µM	5.27 µM	61.3 µM	2.24 µM	37.4 µM	4.03 µM	34.4 µM	1.55 µM	92.5 µM	2.6 µM	8.72 µM
N=C(N)c1ccc2nc(-c3cc(CC(=O)N[C@@H](CC(=O)O)C(=O)O)cc(-c4cc(S(N)(=O)=O)ccc4O)c3O)[nH]c2c1	> 100 µM	> 100 µM	> 100 µM	> 100 µM	> 100 µM	> 100 µM	> 100 µM	> 100 µM	> 100 µM	> 100 µM	> 100 µM	> 100 µM	> 100 µM	> 100 µM	> 100 µM	> 100 µM	> 100 µM	> 100 µM	> 100 µM	> 100 µM
COC(=O)/C=C/c1c(CC=C(C)C)ncn1C		> 100 µM		> 92.7 µM		> 100 µM		> 100 µM		> 100 µM		> 87 µM		> 100 µM		> 100 µM		> 100 µM		31.6 µM
C=C1C(=O)O[C@H]2[C@H]1CC/C(COC(=O)/C=C\C(=O)NCc1ccc(Cn3c(=O)sn(CCCC)c3=O)cc1)=C\CC[C@@]1(C)O[C@@H]21	0.202 µM	0.467 µM	0.387 µM	1.61 µM	0.176 µM	0.491 µM	0.655 µM	2.04 µM	0.865 µM	2.25 µM	0.547 µM	1.79 µM	0.556 µM	1.73 µM	0.288 µM	> 100 µM	0.626 µM	1.87 µM	0.396 µM	1.77 µM
CCN1C(=O)N(CC)C2C1NN=c1s/c(=C3\C(=O)N(CC(C)(C)C)c4ccccc43)c(=O)n12 (stereo not drawn)	3.31 µM	18.4 µM	3.65 µM	18.2 µM	3.43 µM	14.5 µM	2.56 µM	16 µM	2.21 µM	11.3 µM	1.83 µM	12.8 µM	3.91 µM	23.6 µM	0.755 µM	41.6 µM	7.77 µM	66.6 µM	3.78 µM	22.6 µM
O=C1NC(=O)/C(=C\c2ccccc2)C2=C1CCCC2	10.4 µM	22.5 µM	7.43 µM	21.8 µM	3.38 µM	11.1 µM	15.9 µM	38.2 µM	3.03 µM	11 µM	6.52 µM	59.8 µM	13 µM	32.4 µM	2.35 µM	5.77 µM	14.8 µM	29.2 µM	3.25 µM	12.5 µM
COc1cc(C=O)c(-c2cc(OC)c(OC)cc2C=O)cc1OC		> 100 µM		> 100 µM		> 100 µM		> 100 µM		> 100 µM		86.3 µM		> 100 µM		88.9 µM		> 100 µM		> 100 µM
NC(=O)c1cc(S(=O)(=O)Nc2nnc(-c3ccccc3)c(-c3ccccc3)n2)c(SCc2ccccc2)cc1Cl	> 88.3 µM	> 100 µM	> 100 µM	> 100 µM	> 100 µM	> 100 µM	> 100 µM	> 100 µM	> 50.8 µM	> 82.6 µM	75.3 µM	> 100 µM	> 54.7 µM	> 94.3 µM	42.2 µM	> 70.9 µM		> 64.6 µM	23.1 µM	49.6 µM
N#CC(C(=O)C(=O)Nc1ccc(Cl)cc1)c1ccccc1 (stereo not drawn)		> 100 µM		> 100 µM		> 100 µM		> 100 µM		> 100 µM		> 100 µM		> 100 µM		> 100 µM		> 100 µM		> 100 µM
N#Cc1c(N/N=C/c2ccc(Cl)cc2Cl)nc(N)nc1N1CCCC1	19.3 µM	> 100 µM	32 µM	> 100 µM	20.9 µM	> 100 µM	17.6 µM	43.7 µM	51.9 µM	> 100 µM	21.5 µM	66.2 µM	13.8 µM	39.5 µM	10.7 µM	42.9 µM	14.8 µM	> 100 µM	27.7 µM	59.4 µM
Cc1nc2sc3c(c2c(=O)[nH]1)CCCC3		> 100 µM		68.2 µM		> 100 µM		> 100 µM		> 100 µM		> 100 µM		> 100 µM		81.1 µM		> 100 µM		> 100 µM
Cn1cc(C2=C(c3cccc(Br)c3)C(=O)NC2=O)c2ccccc21	9.24 µM	> 25 µM	6.42 µM	> 25 µM	7.62 µM	> 25 µM	8.62 µM	> 25 µM	13.2 µM	> 25 µM	8.3 µM	> 25 µM	11 µM	> 25 µM	7.33 µM	> 25 µM	12.6 µM	> 25 µM	10.2 µM	> 25 µM
CC(=O)[O][Ga]([Br])[O]C(C)=O			> 100 µM	> 100 µM	> 100 µM	> 100 µM	> 100 µM	> 100 µM	> 100 µM	> 100 µM	> 100 µM	> 100 µM	> 100 µM	> 100 µM	> 100 µM	> 100 µM	> 100 µM	> 100 µM	> 100 µM	> 100 µM
OCc1ccn2c1[C@@H](O)CC2		> 100 µM				> 100 µM		> 100 µM		> 100 µM		> 100 µM		> 100 µM		> 100 µM		> 100 µM		> 100 µM
CC1=C(C(=O)Nc2ccc(Cl)c(Cl)c2)C(c2cccc(Oc3ccccc3)c2)NC(=O)N1 (stereo not drawn)	6.61 µM	48.2 µM	4.74 µM	> 50 µM			24.6 µM	> 50 µM	5.28 µM	12.5 µM	9.61 µM	26.5 µM	5.6 µM	32.6 µM	28.1 µM	> 50 µM	11.2 µM	> 50 µM	22.8 µM	> 50 µM
